Laboratory results reported in patent publication US5962480A, “Drug for ameliorating brain diseases” (Wakunaga Pharmaceutical Co., Ltd., priority 1995, dated 1999).
Structures can show the parent of a compound that is named as a salt.

The compounds below were run on hippocampus neurons (assay: inhibition of reduction in survival rate of neurons, hippocampus (number of surviving cells)). Conditions: Rattus norvegicus, Neuron, 72 h; 10^-5 g/ml; control 100%; read-out: Inhibitory effect against reduction in survival rate of neurons (survival rate class).
Format: cell-based, rat
Protocol: From a rat at the 18th day of pregnancy (having an 18 -day old embryo) the uterus was aseptically removed under etherification, and the fetus was obtained. The whole brain was collected from the fetus. From the brain placed in an L-15 medium were removed under a microscope the hippocampus, striate body, septum, cerebral cortex, and cerebellum. They were respectively minced with a knife. The minced tissue was treated by the addition of trypsin (0.25%) and DNase (0.01%) for 30 minutes at 37° C. to thereby isolate cells. The thus-isolated cells were suspended in Eagle's MEM medium supplemented with 10% fetal calf serum, and inoculated at a concentration of 4×10^4 cells/cm^2 into wells of a 48-well plate which had been coated with poly-L-lysin in advance. Following incubation for 24 hours, the medium was replaced by a serum-free DMEM/F-12 medium containing the drug. After three-days' additional incubation (six days for the striate body), the cells were fixed, stained, and the number of surviving cells in each well was counted. Compounds (2) through (14) were tested analogously to Example 1 using hippocampus cells prepared in a manner similar to Example 1. As structural comparative compounds, the following compounds were used: 4H-pyran-4-one (hereinafter referred as Compound (15) and 3-methoxy-6 -hydroxymethyl-4H-pyran-4-one (hereinafter referred to as Compound (16)).
Cc1cc(=O)c(O)c(CO)o1 [Compound (6), 3-Hydroxy-6-methyl-2-hydroxymethyl-4H-pyran-4-one] gave a viability at 10 µg/mL of 110 to 130%. In the case of Cc1cc(=O)c(O)c(CN(C)C)o1 [Compound (7), 3-Hydroxy-6-methyl-2-dimethylaminomethyl-4H-pyran-4-one-HCl], the viability at 10 µg/mL is reported as 110 to 130%. CCCCC(O)c1oc(CO)cc(=O)c1O (stereo not drawn) [Compound (10), 3-Hydroxy-6-hydroxymethyl-2-(1'-hydroxypentyl)-4H-pyran-4-one] showed a viability at 10 µg/mL of 130 to 150%. Work on Cc1cc(=O)c(O)c(C)o1 [Compound (3), 3-Hydroxy-2,6-dimethyl-4H-pyran-4-one] yielded a viability at 10 µg/mL of 110 to 130%.

Same assay, conditions: Rattus norvegicus, Neuron, 72 h; 10^-6 g/ml; control 100%; read-out: Inhibitory effect against reduction in survival rate of neurons (survival rate class)
Compound Cc1cc(=O)c(O)c(CO)o1 [Compound (6), 3-Hydroxy-6-methyl-2-hydroxymethyl-4H-pyran-4-one] has a viability at 1 µg/mL of 110 to 130%. Cc1cc(=O)c(O)c(CN(C)C)o1 [Compound (7), 3-Hydroxy-6-methyl-2-dimethylaminomethyl-4H-pyran-4-one-HCl] was tested, and the viability at 1 µg/mL was 110 to 130%. With CCCCC(O)c1oc(CO)cc(=O)c1O (stereo not drawn) [Compound (10), 3-Hydroxy-6-hydroxymethyl-2-(1'-hydroxypentyl)-4H-pyran-4-one] the viability at 1 µg/mL was 110 to 130%. For Cc1cc(=O)c(O)c(C)o1 [Compound (3), 3-Hydroxy-2,6-dimethyl-4H-pyran-4-one], the viability at 1 µg/mL was 130 to 150%.

Same assay, conditions: Rattus norvegicus, Neuron, 72 h; 10^-7 g/ml; control 100%; read-out: Inhibitory effect against reduction in survival rate of neurons (survival rate class)
Cc1cc(=O)c(O)c(CO)o1 [Compound (6), 3-Hydroxy-6-methyl-2-hydroxymethyl-4H-pyran-4-one] showed a viability at 0.1 µg/mL of 110 to 130%. Compound Cc1cc(=O)c(O)c(CN(C)C)o1 [Compound (7), 3-Hydroxy-6-methyl-2-dimethylaminomethyl-4H-pyran-4-one-HCl] has a viability at 0.1 µg/mL of 90 to 110%. CCCCC(O)c1oc(CO)cc(=O)c1O (stereo not drawn) [Compound (10), 3-Hydroxy-6-hydroxymethyl-2-(1'-hydroxypentyl)-4H-pyran-4-one] was tested, and the viability at 0.1 µg/mL was 90 to 110%. Work on Cc1cc(=O)c(O)c(C)o1 [Compound (3), 3-Hydroxy-2,6-dimethyl-4H-pyran-4-one] yielded a viability at 0.1 µg/mL of 130 to 150%.

Same assay, conditions: Rattus norvegicus, Neuron, 72 h; 10^-8 g/ml; control 100%; read-out: Inhibitory effect against reduction in survival rate of neurons (survival rate class)
Cc1cc(=O)c(O)c(CO)o1 [Compound (6), 3-Hydroxy-6-methyl-2-hydroxymethyl-4H-pyran-4-one] showed a viability at 0.01 µg/mL of 90 to 110%. Cc1cc(=O)c(O)c(CN(C)C)o1 [Compound (7), 3-Hydroxy-6-methyl-2-dimethylaminomethyl-4H-pyran-4-one-HCl] showed a viability at 0.01 µg/mL of 90 to 110%. With CCCCC(O)c1oc(CO)cc(=O)c1O (stereo not drawn) [Compound (10), 3-Hydroxy-6-hydroxymethyl-2-(1'-hydroxypentyl)-4H-pyran-4-one] the viability at 0.01 µg/mL was 90 to 110%. Cc1cc(=O)c(O)c(C)o1 [Compound (3), 3-Hydroxy-2,6-dimethyl-4H-pyran-4-one] was tested, and the viability at 0.01 µg/mL was 110 to 130%.

Same assay, conditions: Rattus norvegicus, Neuron, 72 h; 10^-9 g/ml; control 100%; read-out: Inhibitory effect against reduction in survival rate of neurons (survival rate class)
Work on Cc1cc(=O)c(O)c(CO)o1 [Compound (6), 3-Hydroxy-6-methyl-2-hydroxymethyl-4H-pyran-4-one] yielded a viability at 0.001 µg/mL of 90 to 110%. Cc1cc(=O)c(O)c(CN(C)C)o1 [Compound (7), 3-Hydroxy-6-methyl-2-dimethylaminomethyl-4H-pyran-4-one-HCl] was tested, and the viability at 0.001 µg/mL was 90 to 110%. CCCCC(O)c1oc(CO)cc(=O)c1O (stereo not drawn) [Compound (10), 3-Hydroxy-6-hydroxymethyl-2-(1'-hydroxypentyl)-4H-pyran-4-one] gave a viability at 0.001 µg/mL of 90 to 110%. Cc1cc(=O)c(O)c(C)o1 [Compound (3), 3-Hydroxy-2,6-dimethyl-4H-pyran-4-one] showed a viability at 0.001 µg/mL of 90 to 110%.

These compounds were tested on hippocampus cells (neurites) (assay: branching promotion effect on neurites). Conditions: one and two days after addition of the drug.
Format: cell-based, rat
Protocol: The hippocampus cells obtained in a manner similar to that in Example 1 were incubated for 24 hours in a medium containing fetal calf serum, then for a further 24 hours in a serum-free medium. Subsequently, the drug was added. When one day and two days elapsed after addition of the drug, photographs were taken of the same cells. The number of branches from the longest neurite was counted.
For Cc1cc(=O)c(O)c(C)o1 [Compound (3), 3-Hydroxy-2,6-dimethyl-4H-pyran-4-one], the “branching promotion effect on neurites (in words)” value was “confirmed to have a branching promotion effect on neurites”.
